Measurements from ChEMBL document CHEMBL1154943, “Exploration of SAR features by modifications of thiazoleacetic acids as CRTH2 antagonists” (Bioorg Med Chem Lett, 2010).

Tests used:
[1] = target: T1, Prostaglandin D2 receptor 2 (Homo sapiens, UniProt Q9Y5Y4); test: Displacement of [3H]PGD2 from human CRTH2 receptor expressed in HEK385-7 cells; assay type: cell-based
T1 sequence (Q9Y5Y4 whole entry): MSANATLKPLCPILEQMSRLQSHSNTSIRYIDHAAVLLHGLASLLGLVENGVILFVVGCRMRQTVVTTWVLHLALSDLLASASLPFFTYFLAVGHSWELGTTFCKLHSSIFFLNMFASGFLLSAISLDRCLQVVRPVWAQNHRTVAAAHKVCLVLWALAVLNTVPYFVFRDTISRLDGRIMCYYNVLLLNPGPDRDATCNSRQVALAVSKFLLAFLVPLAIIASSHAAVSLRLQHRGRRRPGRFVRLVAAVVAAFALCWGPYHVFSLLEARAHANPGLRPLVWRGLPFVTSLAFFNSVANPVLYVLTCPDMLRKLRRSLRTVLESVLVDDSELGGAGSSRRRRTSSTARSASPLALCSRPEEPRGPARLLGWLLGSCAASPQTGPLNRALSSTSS

[2] = target: T1, Prostaglandin D2 receptor 2; test: Antagonist activity at human CRTH2 receptor expressed in HEK385-7 cells assessed as inhibition of PGD2-mediated beta-arrestin translocation preincubated 5 mins prior to PGD2 challenge measured after 5 mins by BRET assay; assay type: functional, cell-based
[3] = target: T2, Prostaglandin D2 receptor 2 (Homo sapiens) (UniProt Q9Y5Y4); test: Antagonist activity at human CRTH2 receptor expressed in HEK385-7 cells assessed as inhibition of PGD2-mediated beta-arrestin translocation preincubated 5 mins prior to PGD2 challenge measured after 5 mins by BRET assay relative to control; assay type: functional, cell-based
T2 sequence (whole entry): T1 sequence (Q9Y5Y4 whole entry)

[4] = target: T3, Prostaglandin D2 receptor 2 (Rattus norvegicus, UniProt Q6XKD3); test: Inhibition of rat CRTH2 receptor
T3 sequence (Q6XKD3 whole entry): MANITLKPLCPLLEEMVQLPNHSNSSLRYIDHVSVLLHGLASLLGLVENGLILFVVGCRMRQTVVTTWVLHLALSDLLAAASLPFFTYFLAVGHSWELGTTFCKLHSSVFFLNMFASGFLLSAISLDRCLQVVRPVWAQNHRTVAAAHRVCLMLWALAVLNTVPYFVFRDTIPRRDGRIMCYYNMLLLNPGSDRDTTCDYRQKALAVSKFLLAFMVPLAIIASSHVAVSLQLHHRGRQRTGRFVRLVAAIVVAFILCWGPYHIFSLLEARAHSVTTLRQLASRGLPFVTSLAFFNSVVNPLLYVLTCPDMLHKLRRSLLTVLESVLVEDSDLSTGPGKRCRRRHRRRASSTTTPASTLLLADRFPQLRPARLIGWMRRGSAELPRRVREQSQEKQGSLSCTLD

[5] = target: T4, Prostaglandin D2 receptor 2 (Mus musculus, UniProt Q9Z2J6); test: Inhibition of mouse CRTH2 receptor
T4 sequence (Q9Z2J6 whole entry): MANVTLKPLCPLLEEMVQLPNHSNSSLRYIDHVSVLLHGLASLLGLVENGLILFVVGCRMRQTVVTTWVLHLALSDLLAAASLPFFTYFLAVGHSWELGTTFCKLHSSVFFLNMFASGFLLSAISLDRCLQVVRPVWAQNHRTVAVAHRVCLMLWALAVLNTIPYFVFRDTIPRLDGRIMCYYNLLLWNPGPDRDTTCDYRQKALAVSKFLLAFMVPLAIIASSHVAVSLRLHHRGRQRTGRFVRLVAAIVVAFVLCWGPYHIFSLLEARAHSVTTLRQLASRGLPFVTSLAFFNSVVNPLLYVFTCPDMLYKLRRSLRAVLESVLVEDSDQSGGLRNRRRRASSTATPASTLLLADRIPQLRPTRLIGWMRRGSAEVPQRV

[6] = target: T5, Chemoattractant receptor-homologous molecule expressed on Th2 cells (Cavia porcellus, UniProt Q56D28); test: Inhibition of guinea pig CRTH2 receptor
T5 sequence (Q56D28 whole entry): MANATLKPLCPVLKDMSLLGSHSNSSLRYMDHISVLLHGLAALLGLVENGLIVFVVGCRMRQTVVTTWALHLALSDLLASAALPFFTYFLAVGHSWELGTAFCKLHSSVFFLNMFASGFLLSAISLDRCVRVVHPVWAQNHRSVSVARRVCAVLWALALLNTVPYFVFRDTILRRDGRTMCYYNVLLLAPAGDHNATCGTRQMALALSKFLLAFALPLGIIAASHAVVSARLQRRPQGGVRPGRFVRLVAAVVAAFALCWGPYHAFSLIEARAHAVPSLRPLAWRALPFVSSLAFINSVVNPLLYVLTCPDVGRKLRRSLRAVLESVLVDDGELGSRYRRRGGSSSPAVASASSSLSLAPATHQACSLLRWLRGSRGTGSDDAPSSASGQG

[7] = target: T6, Prostaglandin D2 receptor (Homo sapiens, UniProt Q13258); test: Inhibition of human DP receptor
T6 sequence (Q13258 whole entry): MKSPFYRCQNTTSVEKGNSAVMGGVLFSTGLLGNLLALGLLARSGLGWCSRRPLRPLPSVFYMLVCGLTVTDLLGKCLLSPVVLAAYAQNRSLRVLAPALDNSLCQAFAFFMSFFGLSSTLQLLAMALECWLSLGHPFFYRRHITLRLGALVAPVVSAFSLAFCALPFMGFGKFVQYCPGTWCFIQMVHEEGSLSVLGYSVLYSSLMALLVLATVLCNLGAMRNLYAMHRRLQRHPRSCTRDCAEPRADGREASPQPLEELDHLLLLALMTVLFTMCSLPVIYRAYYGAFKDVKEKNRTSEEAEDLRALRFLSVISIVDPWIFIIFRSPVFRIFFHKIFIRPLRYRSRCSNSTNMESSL

[8] = target: T7, Prostaglandin D2 receptor (Mus musculus, UniProt P70263); test: Inhibition of mouse DP receptor
T7 sequence (P70263 whole entry): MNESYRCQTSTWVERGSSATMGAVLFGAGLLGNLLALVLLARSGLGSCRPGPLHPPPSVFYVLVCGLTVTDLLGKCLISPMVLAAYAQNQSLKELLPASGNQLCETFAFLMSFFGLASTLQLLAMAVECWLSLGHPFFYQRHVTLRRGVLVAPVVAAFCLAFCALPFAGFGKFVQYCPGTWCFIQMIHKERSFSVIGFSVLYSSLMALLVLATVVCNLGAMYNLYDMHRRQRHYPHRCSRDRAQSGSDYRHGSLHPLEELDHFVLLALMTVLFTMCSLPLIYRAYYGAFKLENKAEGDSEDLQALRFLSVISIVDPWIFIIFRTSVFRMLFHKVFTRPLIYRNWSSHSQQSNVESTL

[9] = Inhibition of guinea pig DP receptor; parameters: species or system Cavia porcellus
Thromboxane A2 receptor = target: T8, Thromboxane A2 receptor (Homo sapiens, UniProt P21731); test: Inhibition of thromboxane A2 receptor
T8 sequence (P21731 whole entry): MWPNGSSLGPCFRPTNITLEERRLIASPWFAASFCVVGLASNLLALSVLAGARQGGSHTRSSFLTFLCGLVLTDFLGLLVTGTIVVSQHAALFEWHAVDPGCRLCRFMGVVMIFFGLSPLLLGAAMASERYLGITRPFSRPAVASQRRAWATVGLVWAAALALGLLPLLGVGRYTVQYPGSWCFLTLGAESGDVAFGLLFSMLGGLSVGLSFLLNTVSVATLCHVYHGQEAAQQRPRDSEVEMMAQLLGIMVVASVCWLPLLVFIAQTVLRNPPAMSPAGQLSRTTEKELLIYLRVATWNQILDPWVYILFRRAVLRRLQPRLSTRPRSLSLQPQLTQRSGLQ

SMILES	IC50 [1] [nM]	IC50 [2] [nM]	Efficacy [3] [%]	other results
O=C(O)Cc1cnc(N(c2ccc(F)cc2)c2ccc(F)cc2)nc1-c1cccc(F)c1	1260	> 100000	> 80	–
O=C(O)Cc1sc(N(c2ccc(F)cc2)c2ccc(F)cc2)nc1-c1ccc(F)cc1	23	240	> 80	–
O=C(O)Cc1cnc(C(c2ccc(F)cc2)c2ccc(F)cc2)nc1-c1cccc(F)c1	1.9	12	> 80	IC50 [4]: 7.5 nM; IC50 [5]: 3.4 nM; IC50 [6]: 29 nM; IC50 [7]: 8500 nM; IC50 [8]: 5900 nM; IC50 [9]: > 100000 nM; IC50 (Thromboxane A2 receptor): 31000 nM
O=C(O)COc1sc(C(c2ccc(F)cc2)c2ccc(F)cc2)nc1-c1cccc(F)c1	83	200	> 80	–
CC(c1ccccc1)(c1ccccc1)c1nc(-c2ccc(F)cc2)c(CC(=O)O)s1	7.9	85	> 80	–
O=C(O)Cc1sc(N(c2ccccc2)c2ccccc2)nc1-c1ccc(Cl)cc1	18	72	> 80	–
CS(=O)(=O)c1ccc(N(c2ccccc2)c2nc(-c3ccc(F)cc3)c(CC(=O)O)s2)cc1	190	2000	> 30	–

Continued by falling IC50 [1], values first:

IC50 [1] [nM]	IC50 [2] [nM]	Efficacy [3] [%]	SMILES	other results
9140	> 100000	> 80	O=C(O)Cc1[nH]c(C(c2ccc(F)cc2)c2ccc(F)cc2)nc1-c1ccc(F)cc1	–
2790	> 100000	> 80	COc1ccc(N(c2ccc(OC)cc2)c2ncc(CC(=O)O)c(-c3cccc(F)c3)n2)cc1	–
2070	> 100000	> 80	O=C(O)CCc1cnc(C(c2ccc(F)cc2)c2ccc(F)cc2)nc1-c1cccc(F)c1	–
84	460	> 55	N#Cc1ccc(N(c2ccccc2)c2nc(-c3ccc(F)cc3)c(CC(=O)O)s2)cc1	–
75	1000	> 80	O=C(O)CCc1sc(C(c2ccc(F)cc2)c2ccc(F)cc2)nc1-c1cccc(F)c1	–
43	1500	> 30	O=C(O)Cc1sc(N(c2ccccc2)c2cccnc2)nc1-c1ccc(F)cc1	–
15	260	> 80	COc1ccc(N(c2ccc(OC)cc2)c2nc(-c3cccc(F)c3)c(CC(=O)O)s2)cc1	–
15	98	> 80	O=C(O)Cc1sc(N(c2ccccc2)c2ccccc2)nc1-c1ccc(F)cc1	–
4.4	79	> 80	O=C(O)Cc1sc(N(c2ccccc2)c2ccccc2)nc1-c1cccc(F)c1	–
